Assay results as given in ChEMBL document CHEMBL2406981, “Novel pyrazoline amidoxime and their 1,2,4-oxadiazole analogues: synthesis and pharmacological screening” (Bioorg Med Chem Lett, 2013).
In brackets after ≈: the same amount, converted by molar mass.

Test system: Escherichia coli
Assay: Antimicrobial activity against Escherichia coli MTCC 724 at 100 ug/ml after 24 hrs by agar disc diffusion method
Type: functional
Conditions: MTCC 724, 24 h, read-out: DIZ

SMILES | zone of inhibition at 100 µg/mL [mm]
N/C(=N\O)C1CC(c2ccc(Cl)cc2)=NN1c1ccccc1 (configuration not stated) | 10
COc1ccccc1-c1nc(C2CC(c3ccc(Cl)cc3)=NN2c2ccccc2)no1 (configuration not stated) | 8

Test system: Aspergillus niger
Assay: Antimicrobial activity against Aspergillus niger MTCC 281
Type: functional
Conditions: not given

SMILES | MIC [µg/mL]
N/C(=N\O)C1CC(c2ccc(Cl)cc2)=NN1c1ccccc1 (configuration not stated) | 20 (≈ 63.5 µM)
COc1ccccc1-c1nc(C2CC(c3ccc(Cl)cc3)=NN2c2ccccc2)no1 (configuration not stated) | 15 (≈ 34.8 µM)

Test system: Escherichia coli
Assay: Antimicrobial activity against Escherichia coli MTCC 724 at 50 ug/ml after 24 hrs by agar disc diffusion method
Type: functional
Conditions: MTCC 724, 24 h, read-out: DIZ

SMILES | zone of inhibition at 50 µg/mL [mm]
N/C(=N\O)C1CC(c2ccc(Cl)cc2)=NN1c1ccccc1 (configuration not stated) | 3
COc1ccccc1-c1nc(C2CC(c3ccc(Cl)cc3)=NN2c2ccccc2)no1 (configuration not stated) | 4

Test system: Bacillus cereus
Assay: Antimicrobial activity against Bacillus cereus MTCC 8372
Type: functional
Conditions: not given

SMILES | MIC [µg/mL]
N/C(=N\O)C1CC(c2ccc(Cl)cc2)=NN1c1ccccc1 (configuration not stated) | 30 (≈ 95.3 µM)
COc1ccccc1-c1nc(C2CC(c3ccc(Cl)cc3)=NN2c2ccccc2)no1 (configuration not stated) | 35 (≈ 81.2 µM)

Test system: Aspergillus niger
Assay: Antimicrobial activity against Aspergillus niger MTCC 281 at 50 ug/ml after 24 hrs by agar disc diffusion method
Type: functional
Conditions: MTCC 281, 24 h, read-out: DIZ

SMILES | zone of inhibition at 50 µg/mL [mm]
N/C(=N\O)C1CC(c2ccc(Cl)cc2)=NN1c1ccccc1 (configuration not stated) | 8
COc1ccccc1-c1nc(C2CC(c3ccc(Cl)cc3)=NN2c2ccccc2)no1 (configuration not stated) | 10

Test system: Shigella flexneri
Assay: Antimicrobial activity against Shigella flexneri MTCC 1457 at 100 ug/ml after 24 hrs by agar disc diffusion method
Type: functional
Conditions: MTCC 1457, 24 h, read-out: DIZ

SMILES | zone of inhibition at 100 µg/mL [mm]
N/C(=N\O)C1CC(c2ccc(Cl)cc2)=NN1c1ccccc1 (configuration not stated) | 12
COc1ccccc1-c1nc(C2CC(c3ccc(Cl)cc3)=NN2c2ccccc2)no1 (configuration not stated) | 8

Test system: Aspergillus niger
Assay: Antimicrobial activity against Aspergillus niger MTCC 281 at 100 ug/ml after 24 hrs by agar disc diffusion method
Type: functional
Conditions: MTCC 281, 24 h, read-out: DIZ

SMILES | zone of inhibition at 100 µg/mL [mm]
N/C(=N\O)C1CC(c2ccc(Cl)cc2)=NN1c1ccccc1 (configuration not stated) | 8
COc1ccccc1-c1nc(C2CC(c3ccc(Cl)cc3)=NN2c2ccccc2)no1 (configuration not stated) | 20

Test system: Radical scavenging activity
Assay: Antioxidant activity assessed as DPPH free radical scavenging activity at 100 ug/ml after 20 mins
Type: functional
Conditions: not given

SMILES | Activity [%]
N/C(=N\O)C1CC(c2ccc(Cl)cc2)=NN1c1ccccc1 (configuration not stated) | 69
COc1ccccc1-c1nc(C2CC(c3ccc(Cl)cc3)=NN2c2ccccc2)no1 (configuration not stated) | 64

Test system: not listed separately
Assay: Antioxidant activity assessed as reducing power of ferric ion at 100 ug/ml after 20 mins
Type: functional
Set-up: scale not given: the % may be the effect or the level left
Conditions: not given

SMILES | Activity [%]
N/C(=N\O)C1CC(c2ccc(Cl)cc2)=NN1c1ccccc1 (configuration not stated) | 68
COc1ccccc1-c1nc(C2CC(c3ccc(Cl)cc3)=NN2c2ccccc2)no1 (configuration not stated) | 68

Test system: Staphylococcus aureus
Assay: Antimicrobial activity against Staphylococcus aureus MTCC 96 at 50 ug/ml after 24 hrs by agar disc diffusion method
Type: functional
Conditions: MTCC 96, 24 h, read-out: DIZ

SMILES | zone of inhibition at 50 µg/mL [mm]
N/C(=N\O)C1CC(c2ccc(Cl)cc2)=NN1c1ccccc1 (configuration not stated) | 3
COc1ccccc1-c1nc(C2CC(c3ccc(Cl)cc3)=NN2c2ccccc2)no1 (configuration not stated) | 5

Test system: not listed separately
Assay: Antioxidant activity assessed as reducing power of ferric ion at 50 ug/ml after 20 mins
Type: functional
Set-up: scale not given: the % may be the effect or the level left
Conditions: not given

SMILES | Activity [%]
N/C(=N\O)C1CC(c2ccc(Cl)cc2)=NN1c1ccccc1 (configuration not stated) | 28
COc1ccccc1-c1nc(C2CC(c3ccc(Cl)cc3)=NN2c2ccccc2)no1 (configuration not stated) | 23

Test system: Escherichia coli
Assay: Antimicrobial activity against Escherichia coli MTCC 724
Type: functional
Conditions: not given

SMILES | MIC [µg/mL]
N/C(=N\O)C1CC(c2ccc(Cl)cc2)=NN1c1ccccc1 (configuration not stated) | 40 (≈ 127 µM)
COc1ccccc1-c1nc(C2CC(c3ccc(Cl)cc3)=NN2c2ccccc2)no1 (configuration not stated) | 35 (≈ 81.2 µM)

Test system: Radical scavenging activity
Assay: Antioxidant activity assessed as DPPH free radical scavenging activity at 50 ug/ml after 20 mins
Type: functional
Conditions: not given

SMILES | Activity [%]
N/C(=N\O)C1CC(c2ccc(Cl)cc2)=NN1c1ccccc1 (configuration not stated) | 39
COc1ccccc1-c1nc(C2CC(c3ccc(Cl)cc3)=NN2c2ccccc2)no1 (configuration not stated) | 30

Test system: not listed separately
Assay: Antiinflammatory activity against heat-induced albumin denaturation at […] preincubated for 15 mins before heat induction by UV-vis spectrophotometer analysis
Type: functional
Conditions: not given

SMILES | inhibition [%]
N/C(=N\O)C1CC(c2ccc(Cl)cc2)=NN1c1ccccc1 (configuration not stated) | 59.1
COc1ccccc1-c1nc(C2CC(c3ccc(Cl)cc3)=NN2c2ccccc2)no1 (configuration not stated) | 56.8

Test system: Aspergillus flavus
Assay: Antimicrobial activity against Aspergillus flavus MTCC 873 at 50 ug/ml after 24 hrs by agar disc diffusion method
Type: functional
Conditions: MTCC 873, 24 h, read-out: DIZ

SMILES | zone of inhibition at 50 µg/mL [mm]
N/C(=N\O)C1CC(c2ccc(Cl)cc2)=NN1c1ccccc1 (configuration not stated) | 6
COc1ccccc1-c1nc(C2CC(c3ccc(Cl)cc3)=NN2c2ccccc2)no1 (configuration not stated) | 9

Test system: not listed separately
Assay: Antioxidant activity assessed as reducing power of ferric ion at 10 ug/ml after 20 mins
Type: functional
Set-up: scale not given: the % may be the effect or the level left
Conditions: not given

SMILES | Activity [%]
N/C(=N\O)C1CC(c2ccc(Cl)cc2)=NN1c1ccccc1 (configuration not stated) | 11
COc1ccccc1-c1nc(C2CC(c3ccc(Cl)cc3)=NN2c2ccccc2)no1 (configuration not stated) | 12

Test system: Bacillus cereus
Assay: Antimicrobial activity against Bacillus cereus MTCC 8372 at 50 ug/ml after 24 hrs by agar disc diffusion method
Type: functional
Conditions: MTCC 8372, 24 h, read-out: DIZ

SMILES | zone of inhibition at 50 µg/mL [mm]
N/C(=N\O)C1CC(c2ccc(Cl)cc2)=NN1c1ccccc1 (configuration not stated) | 4
COc1ccccc1-c1nc(C2CC(c3ccc(Cl)cc3)=NN2c2ccccc2)no1 (configuration not stated) | 4

Test system: not listed separately
Assay: Antioxidant activity against ferric chloride-induced lipid peroxidation using egg lecithin at 50 ug/ml after 1 hr
Type: functional
Conditions: not given

SMILES | inhibition [%]
N/C(=N\O)C1CC(c2ccc(Cl)cc2)=NN1c1ccccc1 (configuration not stated) | 12
COc1ccccc1-c1nc(C2CC(c3ccc(Cl)cc3)=NN2c2ccccc2)no1 (configuration not stated) | 38

Test system: Shigella flexneri
Assay: Antimicrobial activity against Shigella flexneri MTCC 1457
Type: functional
Conditions: not given

SMILES | MIC [µg/mL]
N/C(=N\O)C1CC(c2ccc(Cl)cc2)=NN1c1ccccc1 (configuration not stated) | 20 (≈ 63.5 µM)
COc1ccccc1-c1nc(C2CC(c3ccc(Cl)cc3)=NN2c2ccccc2)no1 (configuration not stated) | 25 (≈ 58 µM)

Test system: Aspergillus flavus
Assay: Antimicrobial activity against Aspergillus flavus MTCC 873 at 100 ug/ml after 24 hrs by agar disc diffusion method
Type: functional
Conditions: MTCC 873, 24 h, read-out: DIZ

SMILES | zone of inhibition at 100 µg/mL [mm]
N/C(=N\O)C1CC(c2ccc(Cl)cc2)=NN1c1ccccc1 (configuration not stated) | 10
COc1ccccc1-c1nc(C2CC(c3ccc(Cl)cc3)=NN2c2ccccc2)no1 (configuration not stated) | 10

Test system: Klebsiella pneumoniae
Assay: Antimicrobial activity against Klebsiella pneumoniae MTCC 3384
Type: functional
Conditions: not given

SMILES | MIC [µg/mL]
N/C(=N\O)C1CC(c2ccc(Cl)cc2)=NN1c1ccccc1 (configuration not stated) | 20 (≈ 63.5 µM)
COc1ccccc1-c1nc(C2CC(c3ccc(Cl)cc3)=NN2c2ccccc2)no1 (configuration not stated) | 25 (≈ 58 µM)

Test system: Radical scavenging activity
Assay: Antioxidant activity assessed as DPPH free radical scavenging activity at 10 ug/ml after 20 mins
Type: functional
Conditions: not given

SMILES | Activity [%]
N/C(=N\O)C1CC(c2ccc(Cl)cc2)=NN1c1ccccc1 (configuration not stated) | 29
COc1ccccc1-c1nc(C2CC(c3ccc(Cl)cc3)=NN2c2ccccc2)no1 (configuration not stated) | 24

Test system: not listed separately
Assay: Antioxidant activity against ferric chloride-induced lipid peroxidation using egg lecithin at 10 ug/ml after 1 hr
Type: functional
Conditions: not given

SMILES | inhibition [%]
N/C(=N\O)C1CC(c2ccc(Cl)cc2)=NN1c1ccccc1 (configuration not stated) | 18
COc1ccccc1-c1nc(C2CC(c3ccc(Cl)cc3)=NN2c2ccccc2)no1 (configuration not stated) | 21

Test system: Staphylococcus aureus
Assay: Antimicrobial activity against Staphylococcus aureus MTCC 96
Type: functional
Conditions: not given

SMILES | MIC [µg/mL]
N/C(=N\O)C1CC(c2ccc(Cl)cc2)=NN1c1ccccc1 (configuration not stated) | 40 (≈ 127 µM)
COc1ccccc1-c1nc(C2CC(c3ccc(Cl)cc3)=NN2c2ccccc2)no1 (configuration not stated) | 30 (≈ 69.6 µM)

Test system: Shigella flexneri
Assay: Antimicrobial activity against Shigella flexneri MTCC 1457 at 50 ug/ml after 24 hrs by agar disc diffusion method
Type: functional
Conditions: MTCC 1457, 24 h, read-out: DIZ

SMILES | zone of inhibition at 50 µg/mL [mm]
N/C(=N\O)C1CC(c2ccc(Cl)cc2)=NN1c1ccccc1 (configuration not stated) | 8
COc1ccccc1-c1nc(C2CC(c3ccc(Cl)cc3)=NN2c2ccccc2)no1 (configuration not stated) | 6

Test system: Aspergillus flavus
Assay: Antimicrobial activity against Aspergillus flavus MTCC 873
Type: functional
Conditions: not given

SMILES | MIC [µg/mL]
N/C(=N\O)C1CC(c2ccc(Cl)cc2)=NN1c1ccccc1 (configuration not stated) | 25 (≈ 79.4 µM)
COc1ccccc1-c1nc(C2CC(c3ccc(Cl)cc3)=NN2c2ccccc2)no1 (configuration not stated) | 15 (≈ 34.8 µM)

Test system: Klebsiella pneumoniae
Assay: Antimicrobial activity against Klebsiella pneumoniae MTCC 3384 at 50 ug/ml after 24 hrs by agar disc diffusion method
Type: functional
Conditions: MTCC 3384, 24 h, read-out: DIZ

SMILES | zone of inhibition at 50 µg/mL [mm]
N/C(=N\O)C1CC(c2ccc(Cl)cc2)=NN1c1ccccc1 (configuration not stated) | 8
COc1ccccc1-c1nc(C2CC(c3ccc(Cl)cc3)=NN2c2ccccc2)no1 (configuration not stated) | 6

Test system: Staphylococcus aureus
Assay: Antimicrobial activity against Staphylococcus aureus MTCC 96 at 100 ug/ml after 24 hrs by agar disc diffusion method
Type: functional
Conditions: MTCC 96, 24 h, read-out: DIZ

SMILES | zone of inhibition at 100 µg/mL [mm]
N/C(=N\O)C1CC(c2ccc(Cl)cc2)=NN1c1ccccc1 (configuration not stated) | 5
COc1ccccc1-c1nc(C2CC(c3ccc(Cl)cc3)=NN2c2ccccc2)no1 (configuration not stated) | 10

Test system: Bacillus cereus
Assay: Antimicrobial activity against Bacillus cereus MTCC 8372 at 100 ug/ml after 24 hrs by agar disc diffusion method
Type: functional
Conditions: MTCC 8372, 24 h, read-out: DIZ

SMILES | zone of inhibition at 100 µg/mL [mm]
N/C(=N\O)C1CC(c2ccc(Cl)cc2)=NN1c1ccccc1 (configuration not stated) | 8
COc1ccccc1-c1nc(C2CC(c3ccc(Cl)cc3)=NN2c2ccccc2)no1 (configuration not stated) | 8

Test system: not listed separately
Assay: Antioxidant activity against ferric chloride-induced lipid peroxidation using egg lecithin at 100 ug/ml after 1 hr
Type: functional
Conditions: not given

SMILES | inhibition [%]
N/C(=N\O)C1CC(c2ccc(Cl)cc2)=NN1c1ccccc1 (configuration not stated) | 14
COc1ccccc1-c1nc(C2CC(c3ccc(Cl)cc3)=NN2c2ccccc2)no1 (configuration not stated) | 67

Test system: Klebsiella pneumoniae
Assay: Antimicrobial activity against Klebsiella pneumoniae MTCC 3384 at 100 ug/ml after 24 hrs by agar disc diffusion method
Type: functional
Conditions: MTCC 3384, 24 h, read-out: DIZ

SMILES | zone of inhibition at 100 µg/mL [mm]
N/C(=N\O)C1CC(c2ccc(Cl)cc2)=NN1c1ccccc1 (configuration not stated) | 10
COc1ccccc1-c1nc(C2CC(c3ccc(Cl)cc3)=NN2c2ccccc2)no1 (configuration not stated) | 8
